Each structure is given as a SMILES string. Where two headings read alike, the source gives them in different places.

Data set [1] deals with HIV-1 (HIV-1 RF, HIV-1 NL4-3) in CEM-SS / MT-2 cells. The experiment in a line: Cytopathic effect (CPE) inhibition assay (XTT/MTT dye reduction). It is filed as cell-based. The method, boiled down: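 Readout is XTT reduction (A450, 4 h) after six days of culturing virus-infected (moi 0.025–0.819) or mock-infected CEM-SS/MT-2 cells, 2×10^4 per well, with half-log compound series. Antiviral EC50 and cytotoxic CC50 are relative to uninfected compound-free cells. Therapeutic index is CC50 divided by EC50.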

Data set [2] concerns the target T1, HIV-1 protease (Q7S mutant form) (Human immunodeficiency virus type 1 group M subtype B, UniProt P04585, Q495S).
T1 construct: made in house
The experiment in a line: HIV-1 Protease RET assay. It is filed as biochemical. The following applies: Ave. Ki (nM), RET assay, Q7S enzyme, Morrison tight binding fit. In outline: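 Ki values fitted with the Morrison tight-binding equation from steady-state RET cleavage (ex 340, em 490 nm) of 5 μM RE(EDANS)SQNYPIVQK(DABCYL)R. Buffer pH 4.8 acetate, 1M NaCl, 5 mM DTT, 1 mg/ml BSA, 10% DMSO; 2 nM Q7S mutant dimer, 37 °C, 12 min.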

In the next data set the test system is 461, 84V, 90M virus. As to the kind of experiment: Phenotypic susceptibility assay at Virologic, Inc. It is filed as cell-based, HIV-1. The following applies: Human immunodeficiency virus 1, read-out: EC50 or IC50 (mM), values with asterisk (IC50). On the procedure:
Compounds were tested in phenotypic susceptibility assays at Virologic, Inc., (See Petropoulos C. J., Parkin N. T., Limoli K. L., Lie Y. S., Wrin T., Huang W., Tian H., Smith D., Winslow G. A., Capon D J, Whitcomb J M. 2000, “A novel phenotypic drug susceptibility assay for human immunodeficiency virus type 1,” Antimicrob Agents Chemother 44(4):920–928) or using the assay described here. MT-2 cells were infected with either HIV-1 NL4-3 or HIV-1 NL4-3([…]) and incubated in the presence of serial 0.5 log dilutions of test compounds. Three days later, culture supernatants were collected and virus production, as determined by p24 ELISA, was assayed. Percent inhibition was calculated as p24 concentration in compound-treated samples as compared to infected, compound-free controls. Inhibition of viral replication is determined by measuring reduction in HIV p24 present in the culture supernatant, using a Beckman-Coulter p24HIV-1 Ag EIA kit and following the supplied protocol. Absorbance is read on a MRX microplate reader (Dynex Technologies). The EC50 was calculated as the concentration of compound that effected a decrease in the p24 production by infected, compound-treated cells to 50% of that produced by infected, compound-free cells.

Data set [3] deals with HIV-1 NL4-3 or HIV-1 NL4-3(I84V/L90M). As to the kind of experiment: Susceptibility assay, p24 ELISA in infected MT-2 cells. It is filed as cell-based. The following applies: Human immunodeficiency virus 1, NL43, MT2, read-out: EC50 or IC50 (mM), values without asterisk (EC50). The method, boiled down: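 MT-2 cells infected with HIV-1 NL4-3 or the I84V/L90M mutant were incubated with 0.5 log serial compound dilutions for three days. Supernatant p24 was quantified by ELISA. EC50 is the concentration reducing p24 to 50% of infected, compound-free controls.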
On the technique in general: An ELISA detects its analyte on a solid surface through an enzyme-linked reagent.

The mark [4] stands for this setting: Human immunodeficiency virus 1, NL43, read-out: Ave CPE EC50.
Setting [5] is: Human immunodeficiency virus 1, NL43, read-out: Ave CPE EC50 (mM).

One may read the melting point as the temperature of the solid-liquid transition. `COc1cccc(CNC(=O)[C@H]2N(C(=O)[C@@H](O)C(Cc3ccccc3)NC(=O)c3cccc(O)c3C)CSC2(C)C)c1` (single isomer, unassigned): the melting point was in the range of 108 to 110 °C.
For orientation: EC50 means the concentration giving half of the maximal effect. Usually Ki stands for the equilibrium dissociation constant of an inhibitor or competing ligand from its target. A high value points to weaker binding. `Cc1c(O)cccc1C(=O)N[C@@H](Cc1ccccc1)[C@H](O)C(=O)N1CSC(C)(C)[C@H]1C(=O)N[C@H]1CCCc2ccccc21` [Example A1, 3-[2-Hydroxy-3-(3-hydroxy-2-methyl-benzoylamino)-4-phenyl-butyryl]-5,5-dimethyl-thiazolidine-4-carboxylic acid (1,2,3,4-tetrahydro-naphthalen-1-yl)-amide] yielded a melting point of 125 to 126 °C. Besides, the EC50 in data set [1] (setting [4]) turned out to be 29 nM. In data set [2], this molecule gave an inhibitory constant (Ki) of 0.21 nM.
Molecule `Cc1c(O)cccc1C(=O)N[C@@H](Cc1ccccc1)[C@H](O)C(=O)N1CSC(C)(C)[C@H]1C(=O)N[C@@H]1CCCc2ccccc21` [Example A4, 3-[2-Hydroxy-3-(3-hydroxy-2-methyl-benzoylamino)-4-phenyl-butyryl]-5,5-dimethyl-thiazolidine-4-carboxylic acid (1,2,3,4-tetrahydro-naphthalen-1-yl)-amide] yielded a melting point of 123 to 125 °C. Moreover, the EC50 in data set [1] (setting [4]) stood at 270 nM. For the same molecule, in data set [2], the inhibition constant Ki was 2.2 nM.
Usually IC50 stands for the midpoint of a concentration-inhibition curve. As for `Cc1cnccc1CNC(=O)[C@H]1N(C(=O)[C@@H](O)[C@H](Cc2ccccc2)NC(=O)c2cccc(O)c2C)CSC1(C)C` [Example A10, 3-[2-Hydroxy-3-(3-hydroxy-2-methyl-benzoylamino)-4-phenyl-butyryl]-5,5-dimethyl-thiazolidine-4-carboxylic acid (3-methyl-pyridin4-ylmethyl)-amide], the EC50 in data set [1] (setting [4]) turned out to be 104 nM. In data set [2], the Ki is below 0.1 nM. In addition, the IC50 with 461, 84V, 90M virus amounted to 118 nM.
On to `Cc1c(O)cccc1C(=O)N[C@@H](Cc1ccccc1)[C@H](O)C(=O)N1CSC(C)(C)[C@H]1C(=O)NCC1CCCCC1` [Example A13, 3-[2-Hydroxy-3-(3-hydroxy-2-methyl-benzoylamino)-4-phenyl-butyryl]-5,5-dimethyl-thiiazolidine-4-carboxylic acid cyclohexylmethyl-amide], for which the EC50 in data set [1] (setting [4]) amounted to 495 nM. The molecule further displayed a Ki in data set [2] of 3.4 nM. In the data set on 461, 84V, 90M virus, the half-maximal inhibitory concentration (IC50) was found to be 921 nM.
For the molecule `Cc1c(O)cccc1C(=O)N[C@@H](Cc1ccccc1)[C@H](O)C(=O)N1CSC(C)(C)[C@H]1C(=O)NCc1ccc2c(c1)OCO2` [Example A14, 3-((2S,3S)-2-Hydroxy-3-{[1-(3-hydroxy-2-methyl-phenyl)-methanoyl]-amino}-4-phenyl-butanoyl)-5,5-dimethyl-thiazolidine-4-carboxylic acid (benzo[1,3]dioxol-5-ylmethyl)-amide], the 50% effective concentration (EC50) in data set [1] (setting [5]) was found to be 61 nM. In data set [2], this molecule registered a Ki of 0.32 nM. Besides, the 50% inhibitory concentration (IC50) in the data set on 461, 84V, 90M virus is 226 nM.
On to `Cc1c(O)cccc1C(=O)N[C@@H](Cc1ccccc1)[C@H](O)C(=O)N1CSC(C)(C)[C@H]1C(=O)NCc1ccco1` [Example A15, (R)-3-((2S,3S)-2-Hydroxy-3-{[1-(3-hydroxy-2-methyl-phenyl)-methanoyl]-amino}-4-phenyl-butanoyl)-5,5-dimethyl-thiazolidine-4-carboxylic acid (furan-2-ylmethyl)-amide], for which the EC50 in data set [1] (setting [4]) stood at 55 nM. Also, the inhibitory constant (Ki) in data set [2] was below 0.1 nM. Besides, the half-inhibitory concentration (IC50) in the data set with 461, 84V, 90M virus was 57 nM.
For the molecule `Cc1c(O)cccc1C(=O)N[C@@H](Cc1ccccc1)[C@H](O)C(=O)N1CSC(C)(C)[C@H]1C(=O)NCC1CC1` [Example A20, (R)-3-((2S,3S)-2-Hydroxy-3-{[1-(3-hydroxy-2-methyl-phenyl)-methanoyl]-amino}-4-phenyl-butanoyl)-5,5-dimethyl-thiazolidine-4-carboxylic acid cyclopropylmethyl-amide], the EC50 in data set [1] (setting [4]) amounted to 35 nM. In data set [2], this molecule returned an inhibitory constant (Ki) of 0.16 nM. For the same molecule, the IC50 in the data set with 461, 84V, 90M virus was 219 nM.
In the case of `Cc1c(O)cccc1C(=O)N[C@@H](Cc1ccccc1)[C@H](O)C(=O)N1CSC(C)(C)[C@H]1C(=O)NC1CCCCC1` [Example A21, (R)-3-((2S,3S)-2-Hydroxy-3-{[1-(3-hydroxy-2-methyl-phenyl)-methanoyl]-amino)-4-phenyl-butanoyl)-5,5-dimethyl-thiazolidine-4-carboxylic acid cyclohexylamide], the concentration for a half-maximal effect (EC50) in data set [1] (setting [4]) came out at 49 nM. For the same molecule, the Ki in data set [2] was below 0.1 nM. In addition, in the data set with 461, 84V, 90M virus, the IC50 is 655 nM.
As for `Cc1c(O)cccc1C(=O)N[C@@H](Cc1ccccc1)[C@H](O)C(=O)N1CSC(C)(C)[C@H]1C(=O)NCc1cccs1` [Example A23, (R)-3-((2S,3S)-2-Hydroxy-3-{[1-(3-hydroxy-2-methyl-phenyl)-methanoyl]-amino}-4-phenyl-butanoyl)-5,5-dimethyl-thiazolidine-4-carboxylic acid (thiophen-2-ylmethyl)-amide], the EC50 in data set [1] (setting [4]) came to 17 nM. Besides, in data set [2], the Ki came out at 2.6 nM. For the same molecule, in the data set on 461, 84V, 90M virus, the IC50 was 48 nM.
For `Cc1ccccc1CNC(=O)[C@H]1N(C(=O)[C@@H](O)[C@H](Cc2ccccc2)NC(=O)O[C@H]2CCOC2)CSC1(C)C` [Example B1, {1-Benzyl-3-[5,5-dimethyl-4-(2-methyl-benzylcarbamoyl)-thiazoldin-3-yl]-2-hydroxy-3-oxo-propyl}-carbamic acid tetrahydropfuran-3-yl-ester] the same measures were 49 nM, 0.27 nM and 236 nM.
With `Cc1ccccc1CNC(=O)[C@H]1N(C(=O)[C@@H](O)[C@H](Cc2ccccc2)NC(=O)c2cccc3c2CCN3)CSC1(C)C` [Example B6, 2,3-Dihydro-1H-indole-4-carboxylic acid {(1S,2S)-1-benzyl-3-[(R)-5,5-dimethyl-4-(2-methyl-benzylcarbamoyl)-thiazolidin-3-yl]-2-hydroxy-3-oxo-propyl}-amide], the EC50 in data set [1] (setting [4]) was 95 nM. Also, in data set [2], affinity was put at a Ki of 0.31 nM. For the same molecule, the half-inhibitory concentration (IC50) in the data set on 461, 84V, 90M virus is 405 nM.
In the same order, the values of `Cc1ccccc1CNC(=O)[C@H]1N(C(=O)[C@@H](O)[C@H](Cc2ccccc2)NC(=O)COc2c(C)cccc2C)CSC1(C)C` [Example B7, (R)-3-{(2S,3S)-3-[2-(2,6-Dimethylphenoxy)-ethanoylamino]-2-hydroxy-4-phenyl-butanoyl}-5,5-dimethylthiazolidine-4-carboxylic acid 2-methyl-benzylamide] are 265 nM, below 0.1 nM and 333 nM.
Regarding `CCCC(=O)N[C@@H](Cc1ccccc1)[C@H](O)C(=O)N1CSC(C)(C)[C@H]1C(=O)NCc1ccccc1C` [Example B20, (R)-3-((2S,3S)-3-Butyrylamino-2-hydroxy-4-phenyl-butyryl)-5,5-dimethyl-thiazolidine-4-carboxylic acid 2-methyl-benzylamide], the 50% effective concentration (EC50) in data set [1] (setting [4]) amounted to 1560 nM. The molecule further returned an inhibition constant (Ki) in data set [2] of 2.1 nM. In addition, the IC50 with 461, 84V, 90M virus amounted to 2080 nM.
On to `C=CCNC(=O)[C@H]1N(C(=O)[C@@H](O)[C@H](Cc2ccccc2)NC(=O)c2cccc3c2CCN3)CSC1(C)C` [Example B21, 2,3-Dihydro-1H-indole-4-carboxylic acid [(1S,2S)-3-((R)-4-allylcarbamoyl-5,5-dimethyl-thiazolidin-3-yl)-1-benzyl-2-hydroxy-3-oxo-propyl]-amide], for which the EC50 in data set [1] (setting [4]) was found to be 109 nM. Besides, the inhibition constant (Ki) in data set [2] was 0.91 nM. The half-maximal inhibitory concentration (IC50) in the data set on 461, 84V, 90M virus worked out at 547 nM.
Turning to `Cc1c(O)cccc1C(=O)N[C@@H](Cc1ccccc1)[C@H](O)C(=O)N1CSC2(CCC2)[C@H]1C(=O)N[C@@H]1C=CCCC1` [Example C39, (R)-7-((2S,3S)-2-Hydroxy-3-{[1-(3-hydroxy-2-methyl-phenyl)-methanoyl]-amino}-4-phenyl-butanoyl)-5-thia-7-aza-spiro[3.4]octane-8-carboxylic acid (S)-cyclohex-2-enylamide], the 50% effective concentration (EC50) in data set [1] (setting [4]) came out at 13 nM; in data set [3], 0.000404 mM. Also, the Ki in data set [2] is below 0.1 nM.
Consider `C=CCCC(=O)[C@H]1N(C(=O)[C@@H](O)[C@H](Cc2ccccc2)NC(=O)c2cccc(O)c2C)CSC1(C)C` [Example D1, N-[(1S,2S)-1-Benzyl-3-((R)-5,5-dimethyl-4-pent-4-enoyl-thiazolidin-3-yl)-2-hydroxy-3-oxo-propyl]-3-hydroxy-2-methyl-benzamide], for which the results for the half-maximal effective concentration (EC50) in data set [1] (setting [5]) and in data set [3] were 52 nM and 0.000601 mM, respectively. In addition, the Ki in data set [2] is below 0.1 nM.

For the origin of these results see US7094909B2, “HIV protease inhibitors, compositions containing the same, their pharmaceutical uses and materials for their synthesis” (priority 2001, dated 2006).
